# Experiments:
# Type in all cases: in vivo
# [1] = tested on: Avena fatua (AVEFA); assay: Example A glasshouse herbicide test, pre-emergence, AVEFA; conditions: Rate 250 g/ha, sprayed after cultivation for one day, evaluated after 13 days; for pest or weed control at 250 g/ha: Avena fatua, pre-emergence, 312 h, read-out: Pre-Emergence Activity AVEFA (100=total damage to plant; 0=no damage to plant)
# Protocol: (§1) Seeds of a variety of test species are sown in standard soil in pots. After cultivation for one day (pre-emergence) or after 8 days cultivation (post-emergence) under controlled conditions in a glasshouse (at 24/16° C., day/night; 14 hours light; 65% humidity), the plants are sprayed with an aqueous spray solution derived from the formulation of the technical active ingredient in acetone/water (50:50) solution containing 0.5% Tween 20 (polyoxyethelyene sorbitan monolaurate, CAS RN 9005-64-5).
# (§2) The test plants are then grown in a glasshouse under controlled conditions in a glasshouse (at 24/16° C., day/night; 14 hours light; 65% humidity) and watered twice daily. After 13 days for pre and post-emergence, the test is evaluated (100=total damage to plant; 0=no damage to plant).
# (§3) Lolium perenne (LOLPE), Alopecurus myosuroides (ALOMY), Echinochloa crus-galli (ECHCG), Avena fatua (AVEFA)
# [2] = tested on: Winter Wheat variety 'Hereward'; assay: Example B crop damage test, post-emergence, wheat seed treated with safener cloquintocet mexyl; conditions: Rate 250 g/ha; post-emergence spray 8 days after sowing; seed treated with cloquintocet mexyl 0.5 g/kg dry seed; evaluated after 13 days
# Protocol: Seeds of the Winter Wheat variety ‘Hereward’ were seed treated with a wettable powder formulation of the cereal herbicide safener, cloquintocet mexyl, at a rate of 0.5 grams per kilogram of dry seed prior to the initiation of glasshouse testing. One seed was sown per 1.5 inch plastic pot into a sandy loam soil at a depth of 1 cm, 8 days prior to application of the test compounds and was watered and grown under controlled conditions in a glasshouse (at 24/16° C., day/night; 14 hours light; 65% humidity). The plants were sprayed post-emergence with an aqueous spray solution derived from the formulation of the technical active ingredient in acetone/water (50:50) solution containing 0.5% Tween 20 (polyoxyethelyene sorbitan monolaurate, CAS RN 9005-64-5).
# (§4) The test plants were then grown in a glasshouse under controlled conditions in a glasshouse (at 24/16° C., day/night; 14 hours light; 65% humidity) and watered twice daily. After 13 days for pre and post-emergence, the test was evaluated (100=total damage to plant; 0=no damage to plant).
# [3] = tested on: Echinochloa crus-galli (ECHCG); assay: Example A glasshouse herbicide test, pre-emergence, ECHCG; conditions: Rate 250 g/ha, sprayed after cultivation for one day, evaluated after 13 days; for pest or weed control at 250 g/ha: Echinochloa crus-galli, pre-emergence, 312 h, read-out: Pre-Emergence Activity ECHCG (100=total damage to plant; 0=no damage to plant)
# Protocol: as §1, §2, §3
# [4] = tested on: Avena fatua (AVEFA); assay: Example A glasshouse herbicide test, post-emergence, AVEFA; conditions: Rate 250 g/ha, sprayed after 8 days cultivation, evaluated after 13 days; for pest or weed control at 250 g/ha: Avena fatua, post-emergence, 312 h, read-out: Post-Emergence Activity AVEFA (100=total damage to plant; 0=no damage to plant)
# Protocol: as §1, §2, §3
# [5] = tested on: Alopecurus myosuroides (ALOMY); assay: Example A glasshouse herbicide test, pre-emergence, ALOMY; conditions: Rate 250 g/ha, sprayed after cultivation for one day, evaluated after 13 days; for pest or weed control at 250 g/ha: Alopecurus myosuroides, pre-emergence, 312 h, read-out: Pre-Emergence Activity ALOMY (100=total damage to plant; 0=no damage to plant)
# Protocol: as §1, §2, §3
# [6] = tested on: Winter Wheat variety 'Hereward'; assay: Example B crop damage test, post-emergence, unsafened wheat; conditions: Rate 250 g/ha; post-emergence spray after 8 days cultivation; no safener; evaluated after 13 days
# Protocol: Seeds of the Winter Wheat variety ‘Hereward’ were sown in standard soil in pots. After 8 days cultivation under controlled conditions in a glasshouse (at 24/16° C., day/night; 14 hours light; 65% humidity), the plants were sprayed post-emergence with an aqueous spray solution derived from the formulation of the technical active ingredient in acetone/water (50:50) solution containing 0.5% Tween 20 (polyoxyethelyene sorbitan monolaurate, CAS RN 9005-64-5).
# as §4
# [7] = tested on: Lolium perenne (LOLPE); assay: Example A glasshouse herbicide test, pre-emergence, LOLPE; conditions: Rate 250 g/ha, sprayed after cultivation for one day, evaluated after 13 days; for pest or weed control at 250 g/ha: Lolium perenne, pre-emergence, 312 h, read-out: Pre-Emergence Activity LOLPE (100=total damage to plant; 0=no damage to plant)
# Protocol: as §1, §2, §3
# [8] = tested on: Lolium perenne (LOLPE); assay: Example A glasshouse herbicide test, post-emergence, LOLPE; conditions: Rate 250 g/ha, sprayed after 8 days cultivation, evaluated after 13 days; for pest or weed control at 250 g/ha: Lolium perenne, post-emergence, 312 h, read-out: Post-Emergence Activity LOLPE (100=total damage to plant; 0=no damage to plant)
# Protocol: as §1, §2, §3
# [9] = tested on: Echinochloa crus-galli (ECHCG); assay: Example A glasshouse herbicide test, post-emergence, ECHCG; conditions: Rate 250 g/ha, sprayed after 8 days cultivation, evaluated after 13 days; for pest or weed control at 250 g/ha: Echinochloa crus-galli, post-emergence, 312 h, read-out: Post-Emergence Activity ECHCG (100=total damage to plant; 0=no damage to plant)
# Protocol: as §1, §2, §3
# [10] = tested on: Alopecurus myosuroides (ALOMY); assay: Example A glasshouse herbicide test, post-emergence, ALOMY; conditions: Rate 250 g/ha, sprayed after 8 days cultivation, evaluated after 13 days; for pest or weed control at 250 g/ha: Alopecurus myosuroides, post-emergence, 312 h, read-out: Post-Emergence Activity ALOMY (100=total damage to plant; 0=no damage to plant)
# Protocol: as §1, §2, §3
Compound,pest or weed control at 250 g/ha [1],Winter Wheat (Hereward) + cloquintocet mexyl damage (100=total damage to plant; 0=no damage to plant) [2],pest or weed control at 250 g/ha [3],pest or weed control at 250 g/ha [4],pest or weed control at 250 g/ha [5],Winter Wheat (Hereward) damage (100=total damage to plant; 0=no damage to plant) [6],pest or weed control at 250 g/ha [7],pest or weed control at 250 g/ha [8],pest or weed control at 250 g/ha [9],pest or weed control at 250 g/ha [10],Pre-Emergence Activity AVEFA (100=total damage to plant; 0=no damage to plant) [1],Pre-Emergence Activity ECHCG (100=total damage to plant; 0=no damage to plant) [3],Post-Emergence Activity AVEFA (100=total damage to plant; 0=no damage to plant) [4],Pre-Emergence Activity ALOMY (100=total damage to plant; 0=no damage to plant) [5],Pre-Emergence Activity LOLPE (100=total damage to plant; 0=no damage to plant) [7],Post-Emergence Activity LOLPE (100=total damage to plant; 0=no damage to plant) [8],Post-Emergence Activity ECHCG (100=total damage to plant; 0=no damage to plant) [9],Post-Emergence Activity ALOMY (100=total damage to plant; 0=no damage to plant) [10]
Cc1cc(C)c(C2C(=O)CC(CC3CCCC4CCCCC43)C2=O)c(C)c1 (stereo not shown) [Compound A36],50%,0,70%,90%,70%,20,10%,70%,70%,40%,,,,,,,,
Cc1cc(C)c(C2=C(OC(=O)C(C)(C)C)CC(Cc3ccc(C#N)cc3)C2=O)c(C)c1 (stereo not shown) [Compound B14],10%,,50%,50%,60%,,80%,60%,70%,70%,,,,,,,,
Cc1cc(C)c(C2C(=O)CC(CC3CCCCC3C)C2=O)c(C)c1 (stereo not shown) [Compound A29],50%,,90%,0%,50%,,90%,90%,50%,0%,,,,,,,,
"COC1CCC(/C=C2\CC(=O)C(c3c(C)cc(C)cc3C)C2=O)CC1 (stereo not shown) [Compound A39, 4-[1-(4-Methoxy-cyclohexyl)-meth-(E)-ylidene]-2-(2,4,6-trimethyl-phenyl)-cyclopentane-1,3-dione]",80%,,100%,90%,60%,,50%,50%,100%,90%,,,,,,,,
COc1ccc(CC2CC(OC(=O)C(C)(C)C)=C(c3c(C)cc(C)cc3C)C2=O)cc1 (stereo not shown) [Compound B19],30%,,10%,60%,40%,,80%,80%,30%,80%,,,,,,,,
Cc1cccc(CC2CC(OC(=O)C(C)(C)C)=C(c3c(C)cc(C)cc3C)C2=O)c1 (stereo not shown) [Compound B13],20%,,60%,30%,40%,,70%,80%,60%,60%,,,,,,,,
Cc1cc(C)c(C2=C(OC(=O)C(C)(C)C)CC(Cc3ccc(F)cc3)C2=O)c(C)c1 (stereo not shown) [Compound B8],30%,,50%,20%,70%,,100%,70%,40%,40%,,,,,,,,
Cc1cc(C)c(C2=C(OC(=O)C(C)(C)C)CC(Cc3cc(F)cc(F)c3)C2=O)c(C)c1 (stereo not shown) [Compound B15],20%,,40%,10%,20%,,70%,70%,50%,10%,,,,,,,,
Cc1cc(C)c(C2=C(OC(=O)C(C)(C)C)CC(Cc3ccc(S(C)(=O)=O)cc3)C2=O)c(C)c1 (stereo not shown) [Compound B18],60%,,80%,80%,60%,,70%,50%,80%,70%,,,,,,,,
Cc1cc(C)c(C2=C(OC(=O)C(C)(C)C)CC(Cc3ccccc3)C2=O)c(C)c1 (stereo not shown) [Compound B12],20%,,40%,30%,30%,,90%,90%,50%,60%,,,,,,,,
"2,2-dimethyl-propionic acid 4-(4-fluoro-benzyl)-3-oxo-2-(2,4,6-trimethyl-phenyl)-cyclopent-1-enyl ester [Compound B9]",,,,,,,,,,,40,70,20,90,100,80,80,70
Cc1cc(C)c(C2=C(OC(=O)C(C)(C)C)CC(Cc3ccccc3C)C2=O)c(C)c1 (stereo not shown) [Compound B10],20%,,30%,30%,30%,,100%,90%,40%,50%,,,,,,,,
CC(=O)OC1CCC(CC2CC(=O)C(c3c(C)cc(C)cc3C)=C2OC(=O)C(C)(C)C)CC1 (stereo not shown) [Compound B4],,,,80%,,,,90%,70%,60%,,,,,,,,
Cc1cc(C)cc(CC2CC(OC(=O)C(C)(C)C)=C(c3c(C)cc(C)cc3C)C2=O)c1 (stereo not shown) [Compound B16],10%,,50%,10%,40%,,80%,40%,50%,30%,,,,,,,,
Cc1cc(C)c(C2=C(OC(=O)C(C)(C)C)C(CC3CCC(=NO)CC3)CC2=O)c(C)c1 (stereo not shown) [Compound B5],40%,10,70%,,70%,40,90%,,,,,,,,,,,
Cc1cc(C)c(C2=C(OC(=O)C(C)(C)C)CC(Cc3cccc(Oc4ccccc4)c3)C2=O)c(C)c1 (stereo not shown) [Compound B7],0%,,0%,0%,30%,,20%,20%,20%,20%,,,,,,,,
